Patent US20130165641A1, “6,11-BRIDGED BIARYL MACROLIDES” (Enanta Pharmaceuticals, Inc., priority 2007, published 2013)
≈ marks a conversion by molar mass, not a printed value.

Assays:
[1] = system: H. influenzae; assay: MIC by micro-dilution method, H. influenzae isolates; format: cell-based, Haemophilus influenzae; conditions: for MIC H. influenzae 33929: H. influenzae isolate 33929; for MIC H. influenzae 33929 / MIC H. influenzae 49247: examples of U.S. Pat. No. 6,878,691 for reference; for MIC H. influenzae 49247: H. influenzae isolate 49247
Protocol: Susceptibility tests can be used to quantitatively measure the in vitro activity of an antimicrobial agent against a given bacterial isolate. Compounds are tested for in vitro antibacterial activity by a micro-dilution method. Minimal Inhibitory Concentration (MIC) is determined in 96 well microtiter plates utilizing the appropriate broth medium for the observed bacterial isolates. […] The diluted compounds (2 μl/well) are then transferred into sterile, uninoculated medium (0.2 mL) by use of a 96 fixed tip-pipetting station. The inoculum for each bacterial strain is standardized to approximately 5×10^5 CFU/mL by optical comparison to a 0.5 McFarland turbidity standard. The plates are inoculated with 10 μl/well of adjusted bacterial inoculum. The 96 well plates are covered and incubated at 35+/−2° C. for 24 hours in ambient air environment. Following incubation, plate wells are visually examined by Optical Density measurement for the presence of growth (turbidity). The lowest concentration of an antimicrobial agent at which no visible growth occurs is defined as the MIC.
All in vitro testing follows the guidelines described in the Approved Standards M7-A7 protocol, published by the Clinical Laboratory Standards Institute (CLSI).

[2] = system: MRSA; assay: MIC by micro-dilution method, MRSA isolates; format: cell-based, Staphylococcus aureus; conditions: MRSA isolate 33591; examples of U.S. Pat. No. 6,878,691 for reference
Procedure, shortened: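 CLSI M7-A7 broth microdilution with inoculum about 5×10^5 CFU/mL, in broth suited to each isolate. Plates incubated 24 h at 35±2 °C in ambient air. MIC is the lowest concentration without visible growth, judged by optical density.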

| MIC H. influenzae 33929 [1] | MIC H. influenzae 49247 [1] | MIC MRSA 33591 [2] | SMILES | MIC ([1]; H. influenzae 33929) | MIC ([1]; H. influenzae 49247) |
| --- | --- | --- | --- | --- | --- |
| 8 µg/mL (≈ 9.13 µM) | 8 µg/mL (≈ 9.13 µM) | 32 µg/mL (≈ 36.5 µM) | CC[C@H]1OC(=O)[C@@](C)(F)C(=O)[C@H](C)[C@@H](O[C@@H]2O[C@H](C)C[C@H](N(C)C)[C@H]2O)[C@@]2(C)C[C@@H](C)C(=NC(C)=O)[C@H](C)[C@@H](OC/C(=N\OCc3ccc(-c4cnccn4)s3)CO2)[C@]1(C)O [Compound 141, reference compound] |  |  |
| 4 µg/mL (≈ 4.49 µM) | 4 µg/mL (≈ 4.49 µM) | 4 µg/mL (≈ 4.49 µM) | CC[C@H]1OC(=O)[C@@](C)(F)C(=O)[C@H](C)[C@@H](O[C@@H]2O[C@H](C)C[C@H](N(C)C)[C@H]2O)[C@@]2(C)C[C@@H](C)C(=NC(C)=O)[C@H](C)[C@@H](OC/C(=N\OCc3ccc(-c4cccc(N)n4)s3)CO2)[C@]1(C)O [Compound 173, reference compound] |  |  |
| 8 µg/mL (≈ 9.39 µM) | 8 µg/mL (≈ 9.39 µM) | 64 µg/mL (≈ 75.1 µM) | CC[C@H]1OC(=O)[C@H](C)C(=O)[C@H](C)[C@@H](O[C@@H]2O[C@H](C)C[C@H](N(C)C)[C@H]2O)[C@@]2(C)C[C@@H](C)C(=NC(C)=O)[C@H](C)[C@@H](OC/C(=N\OCc3ccc(-c4ncccn4)cc3)CO2)[C@]1(C)O [Compound 193, reference compound] |  |  |
| 32 µg/mL (≈ 35 µM) | 32 µg/mL (≈ 35 µM) | >64 µg/mL | CCNC(=O)c1cccc(-c2cc(CO/N=C3\CO[C@@H]4[C@@H](C)C(=NC(C)=O)[C@H](C)C[C@@](C)(OC3)[C@H](O[C@@H]3O[C@H](C)C[C@H](N(C)C)[C@H]3O)[C@@H](C)C(=O)[C@@H](C)C(=O)O[C@H](CC)[C@@]4(C)O)on2)n1 [Compound 195, reference compound] |  |  |
| 4 µg/mL (≈ 4.67 µM) | 8 µg/mL (≈ 9.33 µM) | >64 µg/mL | CC[C@H]1OC(=O)[C@H](C)C(=O)[C@H](C)[C@@H](O[C@@H]2O[C@H](C)C[C@H](N(C)C)[C@H]2O)[C@@]2(C)C[C@@H](C)C(=NC(C)=O)[C@H](C)[C@@H](OC/C(=N\OCc3ccc(-c4cccs4)nc3)CO2)[C@]1(C)O [Compound 205, reference compound] |  |  |
| 4 µg/mL (≈ 4.66 µM) | 8 µg/mL (≈ 9.32 µM) | 64 µg/mL (≈ 74.6 µM) | CC[C@H]1OC(=O)[C@H](C)C(=O)[C@H](C)[C@@H](O[C@@H]2O[C@H](C)C[C@H](N(C)C)[C@H]2O)[C@@]2(C)C[C@@H](C)C(=NC(C)=O)[C@H](C)[C@@H](OC/C(=N\OCc3ccc(-c4nccs4)nc3)CO2)[C@]1(C)O [Compound 212, reference compound] |  |  |
| 4 µg/mL (≈ 4.66 µM) | 8 µg/mL (≈ 9.31 µM) | 64 µg/mL (≈ 74.5 µM) | CC[C@H]1OC(=O)[C@@](C)(F)C(=O)[C@H](C)[C@@H](O[C@@H]2O[C@H](C)C[C@H](N(C)C)[C@H]2O)[C@@]2(C)C[C@@H](C)C(=NC(C)=O)[C@H](C)[C@@H](OC/C(=N\OCc3ccc(-n4cccn4)nc3)CO2)[C@]1(C)O [Compound 214, reference compound] |  |  |
|  |  |  | CCC1OC(=O)C(C)C(=O)C(C)C(OC2OC(C)CC(N(C)C)C2O)C2(C)CC(C)C(=O)C(C)C(OCC(=NOCc3ccc(-n4nnnc4N)cc3)CO2)C1(C)O (stereo not drawn) [Example 46] | 2 µg/mL (≈ 2.45 µM) | 2 µg/mL (≈ 2.45 µM) |
|  |  |  | CCC1OC(=O)C(C)C(=O)C(C)C(OC2OC(C)CC(N(C)C)C2O)C2(C)CC(C)C(=NC(C)=O)C(C)C(OCC(=NOCc3ccc(-n4nnnc4N)cc3)CO2)C1(C)O (stereo not drawn) [Example 47] | 2 µg/mL (≈ 2.33 µM) |  |
|  |  |  | CCC1OC(=O)C(C)C(=O)C(C)C(OC2OC(C)CC(N(C)C)C2O)C2(C)CC(C)C(=NC(C)=O)C(C)C(OCC(=NOCc3ccc(-c4nsc(N)n4)cc3)CO2)C1(C)O (stereo not drawn) [Example 48] | 2 µg/mL (≈ 2.29 µM) |  |
|  |  |  | CCC1OC(=O)C(C)(F)C(=O)C(C)C(OC2OC(C)CC(N(C)C)C2O)C2(C)CC(C)C(=O)C(C)C(OCC(=NOCc3ccc(-n4ccc(N)n4)nc3)CO2)C1(C)O (stereo not drawn) [Example 49] | 2 µg/mL (≈ 2.4 µM) | 2 µg/mL (≈ 2.4 µM) |
|  |  |  | CCC1OC(=O)C(C)C(=O)C(C)C(OC2OC(C)CC(N(C)C)C2O)C2(C)CC(C)C(=O)C(C)C(OCC(=NOCc3ncc(-c4cccc(N)n4)cn3)CO2)C1(C)O (stereo not drawn) [Example 50] | 2 µg/mL (≈ 2.42 µM) | 2 µg/mL (≈ 2.42 µM) |
|  |  |  | CCC1OC(=O)C(C)C(=O)C(C)C(OC2OC(C)CC(N(C)C)C2O)C2(C)CC(C)C(=O)C(C)C(OCC(=NOCc3ccc(-c4nc(N)no4)nc3)CO2)C1(C)O (stereo not drawn) [Example 51] | 2 µg/mL (≈ 2.45 µM) | 2 µg/mL (≈ 2.45 µM) |
|  |  |  | CCC1OC(=O)C(C)(F)C(=O)C(C)C(OC2OC(C)CC(N(C)C)C2O)C2(C)CC(C)C(=O)C(C)C(OCC(=NOCc3nc(-c4cccc(N)n4)no3)CO2)C1(C)O (stereo not drawn) [Example 52] | 1 µg/mL (≈ 1.2 µM) | 2 µg/mL (≈ 2.4 µM) |
|  |  |  | CCC1OC(=O)C(C)C(=O)C(C)C(OC2OC(C)CC(N(C)C)C2O)C2(C)CC(C)C(=O)C(C)C(OCC(=NOCc3nc(-c4cccc(N)n4)no3)CO2)C1(C)O (stereo not drawn) [Example 53] | 1 µg/mL (≈ 1.22 µM) | 1 µg/mL (≈ 1.22 µM) |
|  |  |  | CCC1OC(=O)C(C)C(=O)C(C)C(OC2OC(C)CC(N(C)C)C2O)C2(C)CC(C)C(=O)C(C)C(OCC(=NOCc3noc(-c4cccc(N)n4)n3)CO2)C1(C)O (stereo not drawn) [Example 54] | 1 µg/mL (≈ 1.22 µM) | 1 µg/mL (≈ 1.22 µM) |

| MIC H. influenzae 33929 [1] | MIC H. influenzae 49247 [1] | MIC MRSA 33591 [2] | SMILES | MIC ([1]; H. influenzae 33929) | MIC ([1]; H. influenzae 49247) |
| --- | --- | --- | --- | --- | --- |
|  |  |  | CCC1OC(=O)C(C)C(=O)C(C)C(OC2OC(C)CC(N(C)C)C2O)C2(C)CC(C)C(=O)C(C)C(OCC(=NOCc3ccc(-c4coc(N)n4)cn3)CO2)C1(C)O (stereo not drawn) [Example 55] | 2 µg/mL (≈ 2.45 µM) | 1 µg/mL (≈ 1.23 µM) |
|  |  |  | CCC1OC(=O)C(C)(F)C(=O)C(C)C(OC2OC(C)CC(N(C)C)C2O)C2(C)CC(C)C(=O)C(C)C(OCC(=NOCc3ccc(-c4nc(N)ns4)cc3)CO2)C1(C)O (stereo not drawn) [Example 56] | 2 µg/mL (≈ 2.35 µM) | 2 µg/mL (≈ 2.35 µM) |
|  |  |  | CCC(=O)N=C1C(C)CC2(C)OCC(=NOCc3ccn(-c4cccc(N)n4)n3)COC(C1C)C(C)(O)C(CC)OC(=O)C(C)(F)C(=O)C(C)C2OC1OC(C)CC(N(C)C)C1O (stereo not drawn) [Example 57] | 4 µg/mL (≈ 4.5 µM) | 2 µg/mL (≈ 2.25 µM) |
|  |  |  | CCC1OC(=O)C(C)C(=O)C(C)C(OC2OC(C)CC(N(C)C)C2O)C2(C)CC(C)C(=O)C(C)C(OCC(=NOCc3ccn(-c4cccc(N)n4)n3)CO2)C1(C)O (stereo not drawn) [Example 58] | 2 µg/mL (≈ 2.45 µM) | 2 µg/mL (≈ 2.45 µM) |
|  |  |  | CCC1OC(=O)C(C)(F)C(=O)C(C)C(OC2OC(C)CC(N(C)C)C2O)C2(C)CC(C)C(=NC(C)=O)C(C)C(OCC(=NOCc3ccn(-c4cccc(N)n4)n3)CO2)C1(C)O (stereo not drawn) [Example 59] | 2 µg/mL (≈ 2.29 µM) | 2 µg/mL (≈ 2.29 µM) |
|  |  |  | CCC1OC(=O)C(C)C(=O)C(C)C(OC2OC(C)CC(N(C)C)C2O)C2(C)CC(C)C(=O)C(C)C(OCC(=NOCc3ccc(-c4coc(N)n4)nc3)CO2)C1(C)O (stereo not drawn) [Example 60] | 2 µg/mL (≈ 2.45 µM) | 2 µg/mL (≈ 2.45 µM) |
|  |  |  | CCC1OC(=O)C(C)C(=O)C(C)C(OC2OC(C)CC(N(C)C)C2O)C2(C)CC(C)C(=O)C(C)C(OCC(=NOCc3ccc(-c4nc(N)ns4)nc3)CO2)C1(C)O (stereo not drawn) [Example 61] | 2 µg/mL (≈ 2.4 µM) | 2 µg/mL (≈ 2.4 µM) |
|  |  |  | CCC1OC(=O)C(C)C(=O)C(C)C(OC2OC(C)CC(N(C)C)C2O)C2(C)CC(C)C(=O)C(C)C(OCC(=NOCc3ccc(-c4noc(N)n4)nc3)CO2)C1(C)O (stereo not drawn) [Example 62] | 2 µg/mL (≈ 2.45 µM) | 2 µg/mL (≈ 2.45 µM) |
|  |  |  | CCC1OC(=O)C(C)C(=O)C(C)C(OC2OC(C)CC(N(C)C)C2O)C2(C)CC(C)C(=O)C(C)C(OCC(=NOCc3ncc(-c4cccc(N)n4)s3)CO2)C1(C)O (stereo not drawn) [Example 63] | 2 µg/mL (≈ 2.4 µM) | 1 µg/mL (≈ 1.2 µM) |
|  |  |  | CCC1OC(=O)C(C)(F)C(=O)C(C)C(OC2OC(C)CC(N(C)C)C2O)C2(C)CC(C)C(=O)C(C)C(OCC(=NOCc3cnc(-c4nc(N)ns4)cn3)CO2)C1(C)O (stereo not drawn) [Example 64] | 2 µg/mL (≈ 2.35 µM) | 1 µg/mL (≈ 1.17 µM) |
|  |  |  | CCC(=O)N=C1C(C)CC2(C)OCC(=NOCc3cnc(-c4cccc(N)n4)o3)COC(C1C)C(C)(O)C(CC)OC(=O)C(C)(F)C(=O)C(C)C2OC1OC(C)CC(N(C)C)C1O (stereo not drawn) [Example 65] | 4 µg/mL (≈ 4.5 µM) | 1 µg/mL (≈ 1.12 µM) |
|  |  |  | CCC(=O)N=C1C(C)CC2(C)OCC(=NOCc3cnc(-c4nsc(N)n4)cn3)COC(C1C)C(C)(O)C(CC)OC(=O)C(C)(F)C(=O)C(C)C2OC1OC(C)CC(N(C)C)C1O (stereo not drawn) [Example 67] | 4 µg/mL (≈ 4.41 µM) | 2 µg/mL (≈ 2.2 µM) |
|  |  |  | CCC1OC(=O)C(C)C(=O)C(C)C(OC2OC(C)CC(N(C)C)C2O)C2(C)CC(C)C(=O)C(C)C(OCC(=NOCc3cnc(-c4nsc(N)n4)cn3)CO2)C1(C)O (stereo not drawn) [Example 68] | 2 µg/mL (≈ 2.4 µM) | 2 µg/mL (≈ 2.4 µM) |
|  |  |  | CCC1OC(=O)C(C)C(=O)C(C)C(OC2OC(C)CC(N(C)C)C2O)C2(C)CC(C)C(=NC(C)=O)C(C)C(OCC(=NOCc3cnc(-c4cccc(N)n4)o3)CO2)C1(C)O (stereo not drawn) [Example 70] | 2 µg/mL (≈ 2.33 µM) | 2 µg/mL (≈ 2.33 µM) |
|  |  |  | CCC1OC(=O)C(C)C(=O)C(C)C(OC2OC(C)CC(N(C)C)C2O)C2(C)CC(C)C(=O)C(C)C(OCC(=NOCc3csc(-c4cccc(N)n4)n3)CO2)C1(C)O (stereo not drawn) [Example 71] | 2 µg/mL (≈ 2.4 µM) |  |
